# From US9796753B2, “N-substituted indenoisoquinolines and syntheses thereof” (Purdue Research Foundation, priority 2005, dated 2017)
# Like-named read-outs stand apart in the source and are kept apart here.
# Key:
# [1] = tested on: CNS SF-539; assay: COMPARE screening (NCI human cancer cell line screen), cytotoxicity GI50; assay type: cell-based
# Method in brief: (§1)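 Cells of the NCI60 panel were exposed to compound at 100, 10, 1, 0.1 and 0.01 μM for 48 h, then stained with sulforhodamine B. Optical density relative to control was plotted as percentage growth versus log10 concentration.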
# [2] = tested on: colon HCT-116; assay: as above; assay type: cell-based
# Method in brief: as §1
# [3] = tested on: lung HOP-62; assay: as above; assay type: cell-based
# Method in brief: as §1
# [4] = tested on: melanoma UACC-62; assay: as above; assay type: cell-based
# Method in brief: as §1
# [5] = tested on: ovarian OVCAR-3; assay: as above; assay type: cell-based
# Method in brief: as §1
# [6] = tested on: prostate DU-145; assay: as above; assay type: cell-based
# Method in brief: as §1
# [7] = tested on: renal SN12C; assay: as above; assay type: cell-based
# Method in brief: as §1
# [8] = tested on: breast MDA-MB-435; assay: as above; assay type: cell-based; settings: Homo sapiens
# Description: COMPARE screening. The compounds described herein were examined for antiproliferative activity against the human cancer cell lines in the National Cancer Institute screen (COMPARE screening), in which the activity of each compound was evaluated with approximately 55 different cancer cell lines of diverse tumor origins. […] Therefore, the MGM value represents an overall assessment of toxicity of the compound across numerous cell lines.
# [9] = tested on: all human cancer cell lines successfully tested; assay: NCI screen mean graph midpoint (MGM) for growth inhibition; assay type: cell-based
# Method in brief: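 NCI60 panel cells exposed to compound at 100, 10, 1, 0.1 and 0.01 μM for 48 h, then sulforhodamine B staining. Percentage growth versus control plotted against log concentration; MGM is the midpoint across all lines tested.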
# [10] = tested on: breast MCF-7; assay: NCI60 antiproliferative activity, cytotoxicity GI50; assay type: cell-based, human
# Description: Selected compounds were tested for antiproliferative activity in the National Cancer Institute's developmental therapeutics assay 60 cell line screen (NCI60). The cells were incubated with the tested compounds at 100, 10, 1, 0.1, and 0.01 μM concentrations for 48 h before treatment with sulforhodamine B dye. Optical densities were recorded, and their ratios relative to that of the control were plotted as percentage growth against the log 10 of the tested compound concentrations.
# [11] = Homo sapiens, CNSSF-539, read-out: cytotoxicity (GI50) CNS SF-539
# [12] = Homo sapiens, HCT-116, read-out: cytotoxicity (GI50) colon HCT-116
# [13] = Homo sapiens, HOP-62, read-out: cytotoxicity (GI50) lung HOP-62
# [14] = Homo sapiens, UACC-62, read-out: cytotoxicity (GI50) melanoma UACC-62
# [15] = Homo sapiens, OVCAR-3, read-out: cytotoxicity (GI50) ovarian OVCAR-3
# [16] = Homo sapiens, DU-145, read-out: cytotoxicity (GI50) prostate DU-145
# [17] = Homo sapiens, SN12C, read-out: cytotoxicity (GI50) renal SN12C
# [18] = MDA-MB-435, read-out: cytotoxicity (GI50) breast MDA-MB-435
# [19] = Table 1, average GI50 of all cell lines tested (approximately 55), test range 10^−8 to 10^−4 molar
structure (smiles),measurement,setting,value
"Cl.NCCCCCCCCCCn1c2c(c3ccccc3c1=O)C(=O)c1ccccc1-2 [Compound 5at, 6-(10-Aminodecyl)-5,6-dihydro-5,11-dioxo-11H-indeno[1,2-c]isoquinoline Hydrochloride]",GI50,[1]; [11],1.82 µM
same,GI50,[2]; [12],2.75 µM
same,GI50,[3]; [13],4.79 µM
same,GI50,[4]; [14],13.8 µM
same,GI50,[5]; [15],10.7 µM
same,GI50,[6]; [16],3.47 µM
same,GI50,[7]; [17],3.31 µM
same,GI50,[8]; [18],11.7 µM
same,MGM (mean GI50 across cell lines),[9]; [19],5.50 µM
same,melting point,,189 to 192 °C
COc1cc2c(=O)n(CCCN3CCOCC3)c3c(c2cc1O)C(=O)c1cc2c(cc1-3)OCO2 [Compound 18],GI50,[1],0.3 µM
same,GI50,[2],0.39 µM
same,GI50,[3],0.3 µM
same,GI50,[4],0.3 µM
same,GI50,[5],0.9 µM
same,GI50,[6],0.3 µM
same,GI50,[7],0.2 µM
same,MGM (mean GI50 across cell lines),"[9]; Table 6, all human cancer cell lines successfully tested, range 10^−8 to 10^−4 molar, with standard error",0.4 ± 0.005 µM
same,GI50,[10],100 nM
"Cl.NCCCCCCCCCCCCn1c2c(c3ccccc3c1=O)C(=O)c1ccccc1-2 [Compound 5av, 6-(12-Aminododecyl)-5,6-dihydro-5,11-dioxo-11H-indeno[1,2-c]isoquinoline Hydrochloride]",GI50,[1]; [11],18.2 µM
same,GI50,[3]; [13],17 µM
same,GI50,[4]; [14],14.8 µM
same,GI50,[5]; [15],17.8 µM
same,GI50,[6]; [16],19.1 µM
same,GI50,[7]; [17],13.5 µM
same,GI50,[8]; [18],19.5 µM
same,MGM (mean GI50 across cell lines),[9]; [19],18.2 µM
same,melting point,,175 to 178 °C
"Cl.NCCCCCCCCn1c2c(c3ccccc3c1=O)C(=O)c1ccccc1-2 [Compound 5ar, 6-(8-Aminooctyl)-5,6-dihydro-5,11-dioxo-11H-indeno[1,2-c]isoquinoline Hydrochloride]",GI50,[1]; [11],2.82 µM
same,GI50,[2]; [12],1.66 µM
same,GI50,[3]; [13],2.14 µM
same,GI50,[4]; [14],3.8 µM
same,GI50,[5]; [15],3.47 µM
same,GI50,[6]; [16],3.39 µM
same,GI50,[7]; [17],3.47 µM
same,GI50,[8]; [18],5.62 µM
same,MGM (mean GI50 across cell lines),[9]; [19],3.71 µM
same,melting point,,182 to 185 °C
"Cl.NCCCCCCCCCn1c2c(c3ccccc3c1=O)C(=O)c1ccccc1-2 [Compound 5as, 6-(9-Aminononyl)-5,6-dihydro-5,11-dioxo-11H-indeno[1,2-c]isoquinoline Hydrochloride]",GI50,[1]; [11],9.77 µM
same,GI50,[2]; [12],6.46 µM
same,GI50,[3]; [13],6.76 µM
same,GI50,[4]; [14],9.33 µM
same,GI50,[5]; [15],9.55 µM
same,GI50,[6]; [16],6.03 µM
same,GI50,[7]; [17],8.51 µM
same,GI50,[8]; [18],9.55 µM
same,MGM (mean GI50 across cell lines),[9]; [19],8.13 µM
same,melting point,,204 to 207 °C
"Cl.NCCCCCCCn1c2c(c3ccccc3c1=O)C(=O)c1ccccc1-2 [Compound 5aq, 6-(7-Aminoheptyl)-5,6-dihydro-5,11-dioxo-11H-indeno[1,2-c]isoquinoline Hydrochloride]",GI50,[1]; [11],1.78 µM
same,GI50,[2]; [12],1.26 µM
same,GI50,[3]; [13],1.2 µM
same,GI50,[4]; [14],2 µM
same,GI50,[5]; [15],1.7 µM
same,GI50,[6]; [16],0.832 µM
same,GI50,[7]; [17],1.66 µM
same,GI50,[8]; [18],2.24 µM
same,MGM (mean graph midpoint for growth inhibition),[9]; [19],1.66 ± 0.155 µM
same,melting point,,228 to 231 °C
"Cl.NCCCCCCCCCCCn1c2c(c3ccccc3c1=O)C(=O)c1ccccc1-2 [Compound 5au, 6-(11-Aminoundecyl)-5,6-dihydro-5,11-dioxo-11H-indeno[1,2-c]isoquinoline Hydrochloride]",GI50,[1]; [11],2.04 µM
same,GI50,[2]; [12],1.91 µM
same,GI50,[3]; [13],2.19 µM
same,GI50,[4]; [14],1.7 µM
same,GI50,[5]; [15],2.09 µM
same,GI50,[6]; [16],4.57 µM
same,GI50,[7]; [17],2 µM
same,GI50,[8]; [18],11 µM
same,MGM (mean GI50 across cell lines),[9]; [19],5.13 µM
same,melting point,,125 to 129 °C
"CC[C@@]1(O)C(=O)OCc2c1cc1n(c2=O)Cc2cc3ccccc3nc2-1 [Compound S-1, camptothecin, reference compound]",GI50,"[1]; Homo sapiens, CNSSF-539, CNS SF-539, concentration corresponding to 50% growth inhibition, read-out: cytotoxicity (GI50 in μM) CNS SF-539",0.01 µM
same,GI50,"[1]; Homo sapiens, CNSSF-539, Table 1, concentration corresponding to 50% growth inhibition, read-out: cytotoxicity (GI50) CNS SF-539",0.01 µM
same,GI50,"[2]; Homo sapiens, HCT-116, Table 1, concentration corresponding to 50% growth inhibition, read-out: cytotoxicity (GI50) colon HCT-116",0.03 µM
same,GI50,"[2]; Homo sapiens, HCT-116, Table 6, NCI60, 48 h, sulforhodamine B, read-out: Cytotoxicity (GI50) Colon HCT-116",0.03 µM
same,GI50,"[2]; Homo sapiens, colon HCT-116, concentration corresponding to 50% growth inhibition, read-out: cytotoxicity (GI50 in μM) colon HCT-116",0.03 µM
same,GI50,"[3]; Homo sapiens, HOP-62, Table 1, concentration corresponding to 50% growth inhibition, read-out: cytotoxicity (GI50) lung HOP-62",0.01 µM
same,GI50,"[3]; Homo sapiens, HOP-62, Table 6, NCI60, 48 h, sulforhodamine B, read-out: Cytotoxicity (GI50) lung HOP-62",0.01 µM
same,GI50,"[3]; Homo sapiens, lung HOP-62, concentration corresponding to 50% growth inhibition, read-out: cytotoxicity (GI50 in μM) lung HOP-62",0.01 µM
same,GI50,"[4]; Homo sapiens, UACC-62, Table 1, concentration corresponding to 50% growth inhibition, read-out: cytotoxicity (GI50) melanoma UACC-62",0.01 µM
same,GI50,"[4]; Homo sapiens, UACC-62, Table 6, NCI60, 48 h, sulforhodamine B, read-out: Cytotoxicity (GI50) melanoma UACC-62",0.01 µM
same,GI50,"[4]; Homo sapiens, melanoma UACC-62, concentration corresponding to 50% growth inhibition, read-out: cytotoxicity (GI50 in μM) melanoma UACC-62",0.01 µM
same,GI50,"[6]; Homo sapiens, DU-145, Table 1, concentration corresponding to 50% growth inhibition, read-out: cytotoxicity (GI50) prostate DU-145",0.01 µM
same,GI50,"[6]; Homo sapiens, DU-145, Table 6, NCI60, 48 h, sulforhodamine B, read-out: Cytotoxicity (GI50) prostate DU-145",0.01 µM
same,GI50,"[6]; Homo sapiens, prostate DU-145, concentration corresponding to 50% growth inhibition, read-out: cytotoxicity (GI50 in μM) prostate DU-145",0.01 µM
same,GI50,"[7]; Homo sapiens, SN12C, Table 1, concentration corresponding to 50% growth inhibition, read-out: cytotoxicity (GI50) renal SN12C",0.02 µM
same,GI50,"[7]; Homo sapiens, SN12C, Table 6, NCI60, 48 h, sulforhodamine B, read-out: Cytotoxicity (GI50) renal SN12C",0.02 µM
same,GI50,"[7]; Homo sapiens, renal SN12C, concentration corresponding to 50% growth inhibition, read-out: cytotoxicity (GI50 in μM) renal SN12C",0.02 µM
same,GI50,"[8]; MDA-MB-435, Table 1, concentration corresponding to 50% growth inhibition, read-out: cytotoxicity (GI50) breast MDA-MB-435",0.04 µM
same,GI50,"[8]; breast MDA-MB-435, concentration corresponding to 50% growth inhibition, read-out: cytotoxicity (GI50 in μM) breast MDA-MB-435",0.04 µM
same,GI50,"[9]; Homo sapiens, read-out: MGM GI50",40.5 ± 18.7 nM
same,MGM (mean graph midpoint for growth inhibition),[9]; [19],.0405 ± 0.0187 µM
same,GI50,"[9]; all human cancer cell lines successfully tested, read-out: MGM (mean graph midpoint for growth inhibition)",40.5 ± 18.7 nM
same,GI50,"[10]; Homo sapiens, MCF7, Table 6, NCI60, 48 h, sulforhodamine B, read-out: Cytotoxicity (GI50) breast MCF-7",10 nM
